# Experimental data from ChEMBL document CHEMBL1201862, “PubChem BioAssay data set” (2004).
# Activity calls are given as the source filed them.
# Assays:
# Vero [1] = assay: host cell cytotoxicity of antiviral hits, dose response, cytotoxicity control for West Nile virus antiviral project, secondary assay (AID 1650); assay type: functional; settings: Chlorocebus sabaeus
# [2] = target: T1, Latent membrane protein 1 (Human herpesvirus 4 (strain B95-8), UniProt P03230); assay: TES1-eGFP NF-kB reporter inhibition versus Tet-On dsRED, dose response, selectivity assay for LMP1 NF-kB inhibitor project, imaging, HEK293T, dual-color eGFP/dsRED, cherry-picks (AID 588398); assay type: functional, cell-based
# T1 sequence (P03230 whole entry): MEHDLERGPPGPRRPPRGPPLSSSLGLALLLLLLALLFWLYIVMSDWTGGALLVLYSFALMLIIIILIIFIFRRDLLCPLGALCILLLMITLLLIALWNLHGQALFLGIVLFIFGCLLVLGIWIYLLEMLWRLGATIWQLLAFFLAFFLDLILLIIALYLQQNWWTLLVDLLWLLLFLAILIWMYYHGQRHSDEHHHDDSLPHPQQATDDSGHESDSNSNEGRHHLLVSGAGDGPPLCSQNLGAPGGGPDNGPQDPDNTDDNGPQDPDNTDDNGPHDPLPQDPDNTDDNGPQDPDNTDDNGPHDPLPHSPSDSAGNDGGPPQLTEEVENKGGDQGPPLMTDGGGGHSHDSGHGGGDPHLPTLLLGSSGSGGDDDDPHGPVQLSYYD
# HEK293 = assay: inhibitors of LMP1-driven NF-kB reporter, dose response, cell-based, HEK293, luciferase, cherry-pick (AID 588343); assay type: functional; settings: Homo sapiens
# [3] = Luminescence Cell-Based Dose Retest to Confirm Inhibitors of Cancer Stem Cells. [Related pubchem assays (depositor defined):AID2717, AID2721]; assay type: functional; settings: Homo sapiens
# HeLa = assay: HeLa cell cytotoxicity, dose response, cytotoxicity control for MITF activator project, CellTiter-Glo luminescence, cherry-pick samples (AID 540259); assay type: functional, cell-based; settings: Homo sapiens
# [4] = target: T2, Sentrin-specific protease 6 (Homo sapiens, UniProt Q9GZR1); assay type: functional;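 note: Luminescence-based dose-response confirmatory assay of SENP6 inhibition, following up an ultra-high-throughput screen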
# T2 sequence (Q9GZR1 whole entry): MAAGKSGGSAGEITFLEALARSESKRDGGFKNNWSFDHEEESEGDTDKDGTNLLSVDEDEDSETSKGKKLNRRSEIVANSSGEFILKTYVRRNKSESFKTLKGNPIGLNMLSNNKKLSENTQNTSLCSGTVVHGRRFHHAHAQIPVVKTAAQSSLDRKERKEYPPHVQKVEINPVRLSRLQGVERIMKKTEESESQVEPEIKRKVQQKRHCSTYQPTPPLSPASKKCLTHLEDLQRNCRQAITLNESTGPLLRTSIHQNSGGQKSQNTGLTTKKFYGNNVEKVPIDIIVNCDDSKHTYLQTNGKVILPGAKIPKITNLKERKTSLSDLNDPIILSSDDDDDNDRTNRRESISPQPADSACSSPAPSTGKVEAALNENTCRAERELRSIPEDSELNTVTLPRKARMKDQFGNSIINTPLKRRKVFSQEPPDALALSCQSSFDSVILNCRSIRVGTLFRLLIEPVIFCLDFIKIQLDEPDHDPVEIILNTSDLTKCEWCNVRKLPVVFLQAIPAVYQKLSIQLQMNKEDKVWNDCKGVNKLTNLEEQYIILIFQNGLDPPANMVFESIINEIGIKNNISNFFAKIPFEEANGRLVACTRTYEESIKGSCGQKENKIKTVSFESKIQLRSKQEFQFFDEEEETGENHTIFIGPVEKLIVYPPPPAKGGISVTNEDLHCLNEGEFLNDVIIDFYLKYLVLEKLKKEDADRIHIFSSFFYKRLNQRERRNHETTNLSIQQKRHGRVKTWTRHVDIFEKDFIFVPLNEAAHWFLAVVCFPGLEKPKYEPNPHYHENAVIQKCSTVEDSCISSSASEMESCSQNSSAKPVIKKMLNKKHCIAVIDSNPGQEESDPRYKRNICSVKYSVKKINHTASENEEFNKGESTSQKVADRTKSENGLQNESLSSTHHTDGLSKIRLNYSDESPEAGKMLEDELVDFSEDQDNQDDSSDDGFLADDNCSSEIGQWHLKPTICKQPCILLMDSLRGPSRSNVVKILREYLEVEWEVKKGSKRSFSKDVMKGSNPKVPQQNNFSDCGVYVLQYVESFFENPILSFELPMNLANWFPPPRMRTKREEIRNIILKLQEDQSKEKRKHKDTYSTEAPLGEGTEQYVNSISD
# [5] = target: T3, Sentrin-specific protease 8 (Homo sapiens, UniProt Q96LD8); assay type: functional;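 note: luminescence read-out of SENP8 inhibition, dose-response confirmation following an ultra-high-throughput screen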
# T3 sequence (Q96LD8 whole entry): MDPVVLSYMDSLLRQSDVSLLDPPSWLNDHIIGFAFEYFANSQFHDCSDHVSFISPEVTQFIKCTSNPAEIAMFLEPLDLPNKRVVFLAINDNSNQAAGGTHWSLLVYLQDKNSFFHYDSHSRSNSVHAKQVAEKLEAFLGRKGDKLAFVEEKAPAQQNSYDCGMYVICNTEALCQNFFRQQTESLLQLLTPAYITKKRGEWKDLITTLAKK
# [6] = target: T4, Sentrin-specific protease 7 (Homo sapiens, UniProt Q9BQF6); assay type: functional;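 note: Luminescence-based dose-response confirmation of ultra-high-throughput screening hits, measuring inhibition of SENP7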
# T4 sequence (Q9BQF6 whole entry): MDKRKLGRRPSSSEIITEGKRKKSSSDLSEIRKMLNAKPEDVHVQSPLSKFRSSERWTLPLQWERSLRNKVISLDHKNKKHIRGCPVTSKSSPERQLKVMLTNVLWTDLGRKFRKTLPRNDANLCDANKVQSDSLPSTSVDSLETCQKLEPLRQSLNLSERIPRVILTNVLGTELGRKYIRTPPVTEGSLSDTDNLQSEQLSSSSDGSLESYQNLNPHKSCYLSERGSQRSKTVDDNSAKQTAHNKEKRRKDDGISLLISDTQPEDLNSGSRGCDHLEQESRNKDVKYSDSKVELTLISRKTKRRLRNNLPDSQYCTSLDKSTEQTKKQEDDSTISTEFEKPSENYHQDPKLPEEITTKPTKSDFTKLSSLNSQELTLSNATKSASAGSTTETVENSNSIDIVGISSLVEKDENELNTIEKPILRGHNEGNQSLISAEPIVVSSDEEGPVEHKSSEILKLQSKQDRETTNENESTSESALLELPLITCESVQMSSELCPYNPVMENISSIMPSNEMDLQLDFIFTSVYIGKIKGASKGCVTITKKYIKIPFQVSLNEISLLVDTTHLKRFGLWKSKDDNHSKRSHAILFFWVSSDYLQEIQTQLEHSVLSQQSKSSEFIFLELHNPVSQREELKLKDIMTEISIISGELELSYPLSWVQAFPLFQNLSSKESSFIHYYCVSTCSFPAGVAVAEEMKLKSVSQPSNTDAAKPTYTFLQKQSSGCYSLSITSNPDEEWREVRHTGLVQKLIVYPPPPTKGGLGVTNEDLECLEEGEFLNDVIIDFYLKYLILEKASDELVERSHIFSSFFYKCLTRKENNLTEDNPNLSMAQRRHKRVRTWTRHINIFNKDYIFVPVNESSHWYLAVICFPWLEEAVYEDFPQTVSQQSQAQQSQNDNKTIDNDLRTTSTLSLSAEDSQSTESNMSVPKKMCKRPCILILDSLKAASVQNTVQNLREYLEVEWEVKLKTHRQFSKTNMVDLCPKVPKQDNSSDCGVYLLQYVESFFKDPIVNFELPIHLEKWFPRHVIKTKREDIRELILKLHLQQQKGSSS
# Caspase-3 = target: T5, Caspase-3 (Homo sapiens, UniProt P42574); assay type: functional;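 note: Dose-response selectivity test against caspase-3 for candidate inhibitors of sentrin-specific proteases (SENPs)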
# T5 sequence (P42574 whole entry): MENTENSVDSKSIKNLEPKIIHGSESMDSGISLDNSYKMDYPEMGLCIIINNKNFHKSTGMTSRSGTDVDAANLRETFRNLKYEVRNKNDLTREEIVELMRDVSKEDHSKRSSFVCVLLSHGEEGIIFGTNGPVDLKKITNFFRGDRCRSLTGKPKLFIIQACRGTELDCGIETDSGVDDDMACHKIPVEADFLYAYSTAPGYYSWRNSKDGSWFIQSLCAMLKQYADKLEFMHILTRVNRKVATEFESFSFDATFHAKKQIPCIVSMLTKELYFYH
# [7] = cytotoxicity toward NIH3T3 fibroblasts, dose response, counter-screen, cell-based, ATP luminescence, mouse fibroblasts (AID 2010); assay type: functional;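 note: cells exposed to compound for about 90 hours before reading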
# Protein Wnt-3a = Protein Wnt-3a (Mus musculus, UniProt P27467); assay: Wnt3a-driven reporter signaling inhibition, dose response, selectivity assay for Gli-SUFU antagonist project, Wnt-LIGHT cells, luminescence (AID 651570); assay type: functional; settings: read-out: IC50_Mean;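 note: Wnt-LIGHT reporter cells stimulated with conditioned medium from Wnt3a-producing cells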
# Chain of Protein Wnt-3a (P27467 whole entry): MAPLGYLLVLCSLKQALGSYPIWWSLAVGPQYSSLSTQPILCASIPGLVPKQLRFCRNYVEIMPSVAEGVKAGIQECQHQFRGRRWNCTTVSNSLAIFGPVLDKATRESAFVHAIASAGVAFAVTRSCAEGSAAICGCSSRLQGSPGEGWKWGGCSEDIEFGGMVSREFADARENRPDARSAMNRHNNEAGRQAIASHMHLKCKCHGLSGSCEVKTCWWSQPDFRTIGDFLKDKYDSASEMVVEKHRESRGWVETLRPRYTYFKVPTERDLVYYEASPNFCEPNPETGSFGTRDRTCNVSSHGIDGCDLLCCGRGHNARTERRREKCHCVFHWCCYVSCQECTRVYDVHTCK
# INS1 = assay: beta cell apoptosis inhibitors, cytokine rescue, dose response, luminescence, retest (AID 449756); assay type: functional, cell-based; settings: Rattus norvegicus;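 note: cell death triggered by IL-1 beta plus TNF-alpha plus IFN-gamma mixture; protective hits raise ATP signal compared with cytokine alone wells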
# [8] = inhibitors of intracellular T. cruzi replication, confirmation, NIH3T3 host cells, beta-gal luminescence (AID 2044); assay type: functional, cell-based;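 note: intracellular parasites grown in NIH/3T3 mouse fibroblasts as host cells; luminescent beta-galactosidase reporter signal from transgenic T. cruzi replicating inside host cells; inhibitors lower the luminescence signal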
# Vero [9] = assay: Vero cell cytotoxicity, cytotoxicity control for flavivirus capping enzyme inhibitors (AID 588742); assay type: functional; settings: Chlorocebus sabaeus
# Genome polyprotein = Genome polyprotein (dengue virus type 2, UniProt P29990); assay: Dengue-2 NS5 methyltransferase inhibitors, primary screen, biochemical, confirmation dose response (AID 588689); assay type: functional
# Chain of Genome polyprotein (P29990 2492-3391 limits assumed): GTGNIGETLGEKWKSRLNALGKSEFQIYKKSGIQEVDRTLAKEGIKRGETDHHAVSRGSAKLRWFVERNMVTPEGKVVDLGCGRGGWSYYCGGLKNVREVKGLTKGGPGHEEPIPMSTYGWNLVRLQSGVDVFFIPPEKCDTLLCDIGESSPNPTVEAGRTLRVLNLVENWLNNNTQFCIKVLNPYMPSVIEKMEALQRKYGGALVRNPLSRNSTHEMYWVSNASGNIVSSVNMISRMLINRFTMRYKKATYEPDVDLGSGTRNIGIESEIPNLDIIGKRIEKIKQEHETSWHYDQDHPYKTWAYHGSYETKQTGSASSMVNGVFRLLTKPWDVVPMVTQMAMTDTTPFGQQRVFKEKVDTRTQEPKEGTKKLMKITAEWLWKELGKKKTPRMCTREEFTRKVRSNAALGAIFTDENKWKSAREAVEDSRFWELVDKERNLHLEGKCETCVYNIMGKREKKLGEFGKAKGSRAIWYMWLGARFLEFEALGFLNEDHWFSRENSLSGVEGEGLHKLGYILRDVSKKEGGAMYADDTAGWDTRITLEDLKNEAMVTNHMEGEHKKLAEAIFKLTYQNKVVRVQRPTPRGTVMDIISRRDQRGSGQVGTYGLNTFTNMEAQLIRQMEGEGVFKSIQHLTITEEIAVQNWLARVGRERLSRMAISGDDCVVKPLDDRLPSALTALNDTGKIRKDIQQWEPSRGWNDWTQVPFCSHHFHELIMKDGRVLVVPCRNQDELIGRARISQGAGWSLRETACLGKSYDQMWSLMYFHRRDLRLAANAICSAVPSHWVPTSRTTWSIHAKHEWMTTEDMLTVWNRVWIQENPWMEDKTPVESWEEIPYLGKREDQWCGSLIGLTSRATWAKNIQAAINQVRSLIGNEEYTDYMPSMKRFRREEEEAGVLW
# BJ [10] = assay: cytotoxicity toward BJ-TERT fibroblasts, dose response, cell-based, RAS-independent, luminescence (AID 1933); assay type: functional; settings: Homo sapiens
# BJ [11] = assay: cytotoxicity toward BJ-TERT-LT-ST fibroblasts, dose response, cell-based, RAS-independent, luminescence (AID 1935); assay type: functional; settings: Homo sapiens;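 note: BJ fibroblasts immortalized with TERT plus LT and ST oncogenes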
# [12] = control 3'UTR Renilla luciferase suppression, dose response, counter-screen for Shn3 inhibitor project, cell-based, Clone20-Shn3RL, cherry-picked (AID 624133); assay type: functional
# [13] = HepG2 cell cytotoxicity, dose response, cytotoxicity control for Shn3 inhibitor project, CellTiter-Glo, cherry-picked (AID 624134); assay type: functional, cell-based
# [14] = cytotoxicity in HEK-293T cells, dose response, cytotoxicity control for TCR NF-kB inhibitor project, luminescence, T-cell screen hits (AID 489026); assay type: functional, cell-based;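 note: cells exposed to compound about 14 hours before the viability readout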
# [15] = inhibitors of firefly luciferase expression or activity, dose response, H4 neuroglioma cells, luminescence (AID 1990); assay type: functional, cell-based
# [16] = Luminescence Cell-Based Dose Response HTS to Identify Inhibitors of 5'UTR Stem-Loop Driven Prion Protein mRNA Translation in H4 Neuroglioblastoma Cells. [Related pubchem assays: 1827 (Project Summary), 1813 (Primary HTS)]; assay type: functional
# [17] = Shn3 3'UTR reporter inhibitors, dose response, cell-based, Clone20 osteoblasts, firefly luciferase, cherry-picked (AID 624132); assay type: functional;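 note: firefly luciferase luminescence from reporter carrying the Shn3 3'UTR in osteoblasts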
# [18] = cytotoxicity toward DRD oncogenic fibroblasts, dose response, cell-based, non-viral oncogenic, luminescence (AID 1934); assay type: functional; settings: Homo sapiens
# BJ [19] = assay: cytotoxicity toward Ras-transformed BJeLR fibroblasts, dose response, cell-based, alamar blue fluorescence, cherrypicked samples (AID 2631); assay type: functional; settings: Homo sapiens;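 note: confirmatory dose-response assay in RAS-dependent BJ fibroblasts engineered with TERT, LT and ST, with cytotoxicity read by fluorescence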
# [20] = microbe, parasite or virus in culture; assay type: functional; settings: Mycobacterium tuberculosis
# BJ [21] = assay: cells; assay type: functional, cell-based; settings: Homo sapiens
# [22] = inhibitors of SNCA 5'UTR-driven reporter translation, confirmation, H4 neuroglioma cells, luminescence (AID 1988); assay type: functional, cell-based
# cells [23] = assay type: functional, cell-based
# cells [24] = assay type: functional, cell-based; remark: listed apart in the source
# [25] = NIH-3T3 fibroblast cytotoxicity, dose response, cytotoxicity control, cell-based, fluorescence, Alamar Blue, secondary assay (AID 2327); assay type: functional;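 note: NIH-3T3 mouse fibroblasts cultured with fluconazole at 8 µg/mL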
# [26] = C. albicans growth with fluconazole, confirmation, fluorescence, retest (AID 2467); assay type: functional, cell-based
structure (smiles),measurement,setting,value
O=C(Nc1cc(C(F)(F)F)cc(C(F)(F)F)c1)Nc1cnn(-c2ccc([N+](=O)[O-])cc2)c1C(F)(F)F,CC50,Vero [1],2.94 µM (active)
same,AC50,[2],3.91 µM (active)
same,AC50,HEK293,1.12 µM (active)
same,AC50,[3],0.442 µM (active)
CC(C)NC(=O)c1ccc2c3n(nc2c1)-c1ccc(Cl)cc1CO3,AC50,HeLa,50.7 µM (active)
same,IC50,[4],81.8 µM (active)
same,IC50,[5],69.3 µM (active)
same,IC50,[6],18.4 µM (active)
same,IC50,Caspase-3,24 µM (active)
Cc1ccc2c(c1)S/C(=C/c1ccc[n+](C)c1)N2CCO,EC50,[7],> 60 µM (not active)
same,IC50,Protein Wnt-3a,26.7 µM (inactive)
same,AC50,INS1,3.77 µM (active)
same,EC50,[8],1.16 µM (active)
O=C(c1ccccc1)c1ccc(O)c(O)c1O,CC50,Vero [9],> 40 µM (active)
same,IC50,Genome polyprotein,57.7 µM (active)
Nc1ccc(Br)cc1-c1nc2ccccc2[nH]c1=O,IC50,Protein Wnt-3a,0.449 µM (active)
COc1cc(C2c3cc4c(cc3C(OC3OC5COC(c6cccs6)OC5C(O)C3O)C3COC(=O)C23)OCO4)cc(OC)c1O (stereo unspecified),EC50,BJ [10],6.51 µM (inconclusive)
same,EC50,BJ [11],4.24 µM (active)
same,AC50,[12],1.28 µM (active)
same,AC50,[13],14.3 µM (active)
same,IC50,[14],> 80 µM (inactive)
same,EC50,[15],5.15 µM (active)
same,EC50,[16],15.5 µM (active)
same,AC50,[17],1.11 µM (active)
same,EC50,[18],8.49 µM (inconclusive)
same,EC50,BJ [19],0.428 µM (active)
same,CC50,[20],16.5 µM (active)
same,EC50,BJ [21],5.79 µM (inconclusive)
same,EC50,[22],< 0.1 µM (active)
Cc1ccc(-c2cnn(-c3cccc([N+](=O)[O-])c3)c2N)cc1,IC50,[4],> 100 µM (inactive)
same,IC50,[5],> 100 µM (inactive)
same,IC50,[6],8.04 µM (active)
same,IC50,Caspase-3,23.7 µM (active)
COc1ccc2[nH]c(C(=O)N/N=C/c3ccc(O)cc3O)cc2c1,EC50,BJ [10],12.2 µM (active)
same,EC50,BJ [11],10.1 µM (inconclusive)
same,AC50,[2],20.3 µM (active)
same,AC50,HEK293,7.59 µM (active)
same,AC50,INS1,0.694 µM (active)
same,EC50,[18],9.2 µM (inconclusive)
same,EC50,cells [23],9.59 µM (active)
same,EC50,BJ [21],10.8 µM (active)
Oc1cnnc(N/N=C/c2ccccn2)n1,EC50,BJ [10],7.32 µM (active)
same,EC50,BJ [11],6.06 µM (active)
same,EC50,cells [24],> 350 µM (not active)
same,AC50,INS1,1.37 µM (active)
same,EC50,[18],6.35 µM (active)
same,EC50,BJ [19],0.798 µM (active)
same,EC50,cells [23],7.62 µM (active)
same,EC50,[25],2.5 µM (inconclusive)
same,EC50,BJ [21],4.19 µM (active)
same,EC50,[26],1.26 µM (active)
